# ChEMBL document CHEMBL4396896, “N-Aminoacyl and N-hydroxyacyl derivatives of diosgenyl 2-amino-2-deoxy-β-d-glucopyranoside: Synthesis, antimicrobial and hemolytic activities” (Bioorg Med Chem, 2019)
# Assays:
# [1] = tested on: Candida albicans; assay: Antifungal activity against Candida albicans ATCC 10231 incubated in sabouraud liquid medium under aerobic condition for 48 hrs using initial inoculum of 10^3 CFU/ml by serial dilution method; type: functional; conditions: ATCC 10231, 48 h
# [2] = tested on: Enterococcus faecalis; assay: Antibacterial activity against Enterococcus faecalis ATCC 29212 incubated in MHB II under aerobic condition for 18 hrs using initial inoculum of 5 x 10^5 CFU/ml by serial dilution method; type: functional; conditions: ATCC 29212, 18 h
# [3] = tested on: Klebsiella pneumoniae; assay: Antibacterial activity against Klebsiella pneumoniae ATCC 700603 incubated in MHB II under aerobic condition for 18 hrs using initial inoculum of 5 x 10^5 CFU/ml by serial dilution method; type: functional; conditions: ATCC 700603, 18 h
# [4] = tested on: Yarrowia lipolytica; assay: Antifungal activity against Candida lipolytica PCM 2680 incubated in sabouraud liquid medium under aerobic condition for 48 hrs using initial inoculum of 10^3 CFU/ml by serial dilution method; type: functional; conditions: PCM 2680, 48 h
# [5] = tested on: Proteus mirabilis; assay: Antibacterial activity against Proteus mirabilis PCM 543 incubated in MHB II under aerobic condition for 18 hrs using initial inoculum of 5 x 10^5 CFU/ml by serial dilution method; type: functional; conditions: PCM 543, 18 h
# [6] = tested on: Erythrocyte; assay: Haemolytic activity in human erythrocytes assessed as hemoglobin release at 8 to 64 mg/L incubated for 1 hr by microplate spectrophotometry; type: ADME, cell-based
# [7] = tested on: Pseudomonas aeruginosa; assay: Antibacterial activity against Pseudomonas aeruginosa ATCC 9027 incubated in MHB II under aerobic condition for 18 hrs using initial inoculum of 5 x 10^5 CFU/ml by serial dilution method; type: functional; conditions: ATCC 9027, 18 h
# [8] = tested on: Escherichia coli; assay: Antibacterial activity against Escherichia coli ATCC 25922 incubated in MHB II under aerobic condition for 18 hrs using initial inoculum of 5 x 10^5 CFU/ml by serial dilution method; type: functional; conditions: ATCC 25922, 18 h
# [9] = tested on: Staphylococcus epidermidis; assay: Antibacterial activity against Staphylococcus epidermidis PCM 2118 incubated in MHB II under aerobic condition for 18 hrs using initial inoculum of 5 x 10^5 CFU/ml by serial dilution method; type: functional; conditions: PCM 2118, 18 h
# [10] = tested on: Staphylococcus aureus; assay: Antibacterial activity against Staphylococcus aureus ATCC 25923 incubated in MHB II under aerobic condition for 18 hrs using initial inoculum of 5 x 10^5 CFU/ml by serial dilution method; type: functional; conditions: ATCC 25923, 18 h
# [11] = Haemolytic activity in human erythrocytes assessed as haemolytic index by measuring hemoglobin release at 128 mg/L incubated for 1 hr by microplate spectrophotometry; type: ADME, cell-based, Erythrocyte; conditions: read-out: HI
# [12] = tested on: Bacillus subtilis; assay: Antibacterial activity against Bacillus subtilis ATCC 6633 incubated in MHB II under aerobic condition for 18 hrs using initial inoculum of 5 x 10^5 CFU/ml by serial dilution method; type: functional; conditions: ATCC 6633, 18 h
# [13] = Haemolytic activity in human erythrocytes assessed as haemolytic index by measuring hemoglobin release at 64 mg/L incubated for 1 hr by microplate spectrophotometry; type: ADME, cell-based, Erythrocyte; conditions: read-out: HI
# [14] = Haemolytic activity in human erythrocytes assessed as haemolytic index by measuring hemoglobin release at 32 mg/L incubated for 1 hr by microplate spectrophotometry; type: ADME, cell-based, Erythrocyte; conditions: read-out: HI
# [15] = tested on: Erythrocyte; assay: Haemolytic activity in human erythrocytes assessed as haemolytic index by measuring hemoglobin release at 0.5 to 128 mg/L incubated for 1 hr by microplate spectrophotometry relative to control; type: ADME, cell-based; conditions: erythrocyte, 1 h
MIC [1] [µg/mL],MIC [2] [µg/mL],MIC [3] [µg/mL],MIC [4] [µg/mL],MIC [5] [µg/mL],MIC [7] [µg/mL],MIC [8] [µg/mL],MIC [9] [µg/mL],MIC [10] [µg/mL],MIC [12] [µg/mL],SMILES,Activity [6],"hemolysis at 1 h, 128 mg/L [11] [%]","hemolysis at 1 h, 64 mg/L [13] [%]","hemolysis at 1 h, 32 mg/L [14] [%]",Activity [15]
64,64,> 128,64,> 128,> 128,> 128,64,64,64,C[C@@H]1CC[C@@]2(OC1)O[C@H]1C[C@H]3[C@@H]4CC=C5C[C@@H](O[C@@H]6O[C@H](CO)[C@@H](O)[C@H](O)[C@H]6NC(=O)CN)CC[C@]5(C)[C@H]4CC[C@]3(C)[C@H]1[C@@H]2C,Toxic,16,–,–,–
–,4,> 128,–,> 128,> 128,> 128,4,4,8,C[C@@H]1CC[C@@]2(OC1)O[C@H]1C[C@H]3[C@@H]4CC=C5C[C@@H](O[C@@H]6O[C@H](CO)[C@@H](O)[C@H](O)[C@H]6NC(=O)[C@@H]6CCCN6)CC[C@]5(C)[C@H]4CC[C@]3(C)[C@H]1[C@@H]2C,–,100,100,46,–
2,16,–,1,–,–,–,16,16,8,C[C@@H]1CC[C@@]2(OC1)O[C@H]1C[C@H]3[C@@H]4CC=C5C[C@@H](O[C@@H]6O[C@H](CO)[C@@H](O)[C@H](O)[C@H]6N)CC[C@]5(C)[C@H]4CC[C@]3(C)[C@H]1[C@@H]2C.Cl,–,–,–,–,Non-Toxic
